Entries after “also recorded” stand apart in the source; their conditions may differ.
Columns and labels:
[1] = tested on: p6/Gluc (HEVΔORF2/3[Gluc]) replicon, KernowC1p6 genotype 3; assay: Dose titration against p6/Gluc replicon in Huh7 cells, Gaussia luciferase readout; type: cell-based, hepatitis E virus
Experimental: Gaussia luciferase assays.
Statistics—calculation of IC50. Half maximal inhibitory concentrations were calculated by graphing dose-titration data as nonlinear curve fits with three parameters using GraphPad Prism (v8.1.2).

full-length KernowC1p6 = assay: RT-qPCR of HEV RNA, full-length KernowC1p6 in Huh7 cells; type: cell-based, hepatitis E virus; details: 6.25-25 μM isocotoin, day 6
Experimental: Quantification of HEV RNA by RT-qPCR Assay. Huh7 cells were seeded 42,000 cells/well in 24-well plates. One day post-seeding, the cells were transfected with 10 ng/well KernowC1p6 or KernowC1p6-GAD in vitro transcribed RNA. The next day, the medium on the cells transfected with KernowC1p6 was changed to 0.1% DMSO medium containing 25 μM, 12.5 μM, 6.25 μM, or 0 μM isocotoin. The negative control cells transfected with KernowC1p6-GAD were maintained in medium with 0.1% DMSO. The media on the cells was changed every 2 days to fresh drug-containing or DMSO-containing media. On day 6, cells were harvested and lysed in RLT buffer using 350 μL per well. Cell lysates were homogenized by pipetting 6-7 times with a needle syringe. Total RNA was extracted using BioBasic RNA MiniPreps SuperKit (Amherst, N.Y.). RT-qPCR was performed on the samples using qScript XLT 1-Step RT-qPCR ToughMix (Quanta Bio) according to the manufacturer's instructions. In vitro transcribed KernowC1p6 RNA of known concentration was serially diluted 1:10 and included as controls to generate a standard curve to calculate absolute RNA copies/μL in the samples.

Jc1(p7nsGluc2A) (HCV) = type: cell-based, hepatitis C virus; details: Gluc, RLU normalized to untreated
Sar55/Gluc (genotype 1) = assay: Dose titration against Sar55/Gluc replicon
[2] = tested on: SHEV-3/Gluc (genotype 3, swine-derived); assay: Dose titration against SHEV-3/Gluc replicon; details: genotype 3, poor replicative capacity
p6/Gluc[F470S] = assay: Dose titration against mutant replicon p6/Gluc[F470S]
p6/Gluc[G1634R] = assay: Dose titration against mutant replicon p6/Gluc[G1634R]
HSP90AA1 (Hsp90α1) = HSP90AA1 (Hsp90α1) (Homo sapiens, UniProt P07900); assay: Two-dimensional thermal proteome profiling (CETSA) in crude cell extract; details: isocotoin 0.5-30 μM, 37-66.3 °C
HSP90AB1 (Hsp90β) = HSP90AB1 (Hsp90β) (Homo sapiens, UniProt P08238); assay: as above; details: isocotoin 0.5-30 μM, 37-66.3 °C
ABHD10 = biological target: T1, ABHD10 (Homo sapiens, UniProt Q9NUJ1); assay: as above; details: isocotoin 0.5-30 μM, 37-66.3 °C
T1 sequence (Q9NUJ1 53-306): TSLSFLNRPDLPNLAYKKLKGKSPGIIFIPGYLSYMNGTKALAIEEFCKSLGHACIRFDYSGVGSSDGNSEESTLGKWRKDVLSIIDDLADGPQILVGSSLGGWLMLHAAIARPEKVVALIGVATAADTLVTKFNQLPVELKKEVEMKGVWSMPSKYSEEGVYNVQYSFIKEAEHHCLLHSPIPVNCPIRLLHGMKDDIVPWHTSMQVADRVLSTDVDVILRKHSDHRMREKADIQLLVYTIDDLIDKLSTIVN

STOML2 = biological target: T2, STOML2 (Homo sapiens, UniProt Q9UJZ1); assay: as above; details: isocotoin 0.5-30 μM, 37-66.3 °C
T2 sequence (Q9UJZ1 29-356): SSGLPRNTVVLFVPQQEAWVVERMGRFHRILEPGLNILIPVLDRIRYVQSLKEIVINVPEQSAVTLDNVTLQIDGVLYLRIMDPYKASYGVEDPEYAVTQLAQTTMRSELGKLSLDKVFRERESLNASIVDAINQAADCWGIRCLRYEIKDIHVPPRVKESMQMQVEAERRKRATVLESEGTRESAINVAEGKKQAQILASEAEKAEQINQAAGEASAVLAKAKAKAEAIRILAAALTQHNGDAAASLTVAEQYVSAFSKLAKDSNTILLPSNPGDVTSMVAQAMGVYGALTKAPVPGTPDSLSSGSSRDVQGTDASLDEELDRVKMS

HSPA14 = biological target: T3, HSPA14 (Homo sapiens, UniProt Q0VDF9); assay: as above; details: isocotoin 0.5-30 μM, 37-66.3 °C
T3 sequence (Q0VDF9 1-509): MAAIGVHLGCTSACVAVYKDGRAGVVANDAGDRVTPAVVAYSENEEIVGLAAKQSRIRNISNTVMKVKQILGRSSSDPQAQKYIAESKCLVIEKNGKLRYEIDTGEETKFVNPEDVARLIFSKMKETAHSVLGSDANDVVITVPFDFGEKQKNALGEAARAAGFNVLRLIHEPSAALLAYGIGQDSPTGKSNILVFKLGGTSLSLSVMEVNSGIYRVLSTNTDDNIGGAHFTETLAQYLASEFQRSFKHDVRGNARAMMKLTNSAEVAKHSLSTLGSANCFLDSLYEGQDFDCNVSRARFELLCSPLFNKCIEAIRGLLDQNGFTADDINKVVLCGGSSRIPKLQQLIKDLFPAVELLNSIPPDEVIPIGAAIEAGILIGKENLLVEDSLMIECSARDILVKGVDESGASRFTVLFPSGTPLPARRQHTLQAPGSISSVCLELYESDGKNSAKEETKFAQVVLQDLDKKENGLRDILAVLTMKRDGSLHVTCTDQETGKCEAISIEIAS

HEV = assay: In vivo testing in HEV-infected human liver chimeric mice, viral RNA in stool and serum; details: 50 mg/kg daily intraperitoneally, 7 days

Chain of HSP90AB1 (Hsp90β) (P08238 whole entry): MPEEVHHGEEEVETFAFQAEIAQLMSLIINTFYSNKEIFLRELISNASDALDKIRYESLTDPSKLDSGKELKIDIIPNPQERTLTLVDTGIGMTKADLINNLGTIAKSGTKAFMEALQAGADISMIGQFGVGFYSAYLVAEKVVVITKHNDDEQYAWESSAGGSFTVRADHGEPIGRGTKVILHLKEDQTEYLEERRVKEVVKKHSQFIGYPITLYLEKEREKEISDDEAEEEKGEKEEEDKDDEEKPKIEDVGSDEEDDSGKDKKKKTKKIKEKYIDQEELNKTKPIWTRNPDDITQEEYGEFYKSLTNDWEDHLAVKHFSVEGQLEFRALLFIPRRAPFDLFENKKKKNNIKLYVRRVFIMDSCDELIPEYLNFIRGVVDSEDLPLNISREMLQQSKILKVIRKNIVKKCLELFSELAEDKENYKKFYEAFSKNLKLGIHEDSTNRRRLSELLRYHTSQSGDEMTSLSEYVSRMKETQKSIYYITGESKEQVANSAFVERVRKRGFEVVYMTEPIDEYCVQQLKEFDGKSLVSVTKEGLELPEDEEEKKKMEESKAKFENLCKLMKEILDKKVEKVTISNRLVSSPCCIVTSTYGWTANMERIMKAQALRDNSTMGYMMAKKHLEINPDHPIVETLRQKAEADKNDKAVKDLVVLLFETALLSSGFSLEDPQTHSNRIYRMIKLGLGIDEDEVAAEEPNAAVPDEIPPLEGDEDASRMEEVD

COc1cc(O)cc(O)c1C(=O)c1ccccc1 [isocotoin, 4-benzoyl-5-methoxybenzene-1,3-diol]
IC50 ([1]; Hepatitis E virus, Huh-7, 96 h): 6.1 µM | inhibition of p6/Gluc (HEV) replication, in words ([1]; Huh7 cells, supernatant Gluc): lower IC50 than ribavirin; also recorded: dose-dependent inhibitory effects; also recorded: dose-dependent inhibition; also recorded: more efficiently than ribavirin; also recorded: inhibits replication; also recorded: to a greater extent than ribavirin | inhibition of full-length KernowC1p6 replication, in words (full-length KernowC1p6): dose-dependent manner; also recorded: inhibits replication | inhibition of HCV replication, in words (Jc1(p7nsGluc2A) (HCV)): dose-dependent inhibitory effects; also recorded: to a greater extent than ribavirin | inhibition of Sar55/Gluc replication, in words (Sar55/Gluc (genotype 1)): lower IC50 than ribavirin; also recorded: inhibits replication | inhibition of SHEV-3/Gluc replication, in words [2]: modest inhibitory effect; also recorded: inhibits replication | sensitivity of p6/Gluc[F470S], in words (p6/Gluc[F470S]): higher sensitivity to isocotoin than to ribavirin | sensitivity of p6/Gluc[G1634R], in words (p6/Gluc[G1634R]): higher sensitivity to isocotoin than to ribavirin | thermal stabilization / soluble protein fraction of HSP90AA1 (HSP90AA1 (Hsp90α1)): thermal stabilization; also recorded: among hits showing the greatest increase in soluble protein fraction | thermal stabilization / soluble protein fraction of HSP90AB1 (HSP90AB1 (Hsp90β)): thermal stabilization; also recorded: relatively modest, but identifiable increase | soluble protein fraction of ABHD10 (ABHD10): among hits showing the greatest increase in soluble protein fraction | soluble protein fraction of STOML2 (STOML2): among hits showing the greatest increase in soluble protein fraction | thermal shift of HSPA14 (HSPA14): did not produce a thermal shift | viral RNA levels in stool and serum pre- and post-treatment (HEV): not a clear decrease in viral levels; also recorded: did not result in a reduction in viral titers
